Reference: patent US20150174144A1, “TETRACYCLINE COMPOUNDS FOR TREATING NEURODEGENERATIVE DISORDERS” (PARATEK PHARMACEUTICALS, INC., priority 2012, published 2015)

Columns and labels:
[1] = Preliminary embryofetal DRF study in rats; assay type: in vivo; settings: high dose of 250 mg/kg
[2] = system: focal cerebral ischemia (permanent MCA occlusion); assay: Rat stroke model, permanent MCA occlusion; assay type: in vivo, Male Wistar rats
GLP phototoxicity assay = assay: GLP phototoxicity assay
Method: The compound was also shown to be negative in a GLP phototoxicity assay. […] Both 14-day acute toxicity and 28-day toxicology study were performed in rats with Compound 1 along with minocycline for comparison. Animals were administered daily oral doses from 15 to 150 mg/kg for up to 4 weeks followed by a recovery period.

Fmr1 KO2 mice = assay: Contextual fear conditioning, mouse model of Fragile X Syndrome; assay type: in vivo; settings: acute stress conditions
Method: (§1) The purpose of this study was to test Compound 1 for treating Fragile X Syndrome. This study utilized Fmr1 KO mice, an animal model of Fragile X Syndrome.
(§2) The Fmr1 KO mice (C57BL/6 background) were kindly provided the FRAXA Foundation. Mice were housed in groups of the same genotype in a temperature and humidity controlled room with a 12-h light-dark cycle (lights on 7 am to 7 pm). Testing was conducted during the light phase. Food and water were available ad libitum. Testing was conducted on Fmr1 KO mice and their wild-type littermates. They were housed in commercial plastic cages purchased in the UK. Experiments were conducted in line with the requirements of the UK Animals (Scientific Procedures) Act, 1986.
(§3) The dosing protocol used is shown below. Mice were dosed at 6-7 weeks by intraperitoneal (i.p.) infusion by osmotic pump (0.5 μl/hour) for 1 week. The solution of 0.9% saline was used as a vehicle, and 10 mice were dosed per each group.
Freezing as a species-specific response to fear was measured.

Metabolism = assay type: in vitro ADME; settings: pre-clinical ADME studies
MOG peptide-induced EAE = MOG peptide-induced EAE in mice; assay type: in vivo, C57BL/6 mouse; settings: mouse, i.p. daily from day 10
Text: The inhibitory activity of Compound 1 was characterized in both mouse and rat models of EAE. Mice were immunized s.c. with myelin oligodendrocyte glycoprotein (MOG) peptide 35-55 in CFA and later injected i.v. with Pertussis toxin. Mice were randomized at day 10 and given compound i.p. Compounds were subsequently administered daily and the animals assessed for clinical score. Mice were scored as follows: 0=no disease; 1=limp tail; 2=paralysis of one or both hind limbs; 4=paralysis of both hind- and forelimbs. […] Rats were dosed daily i.p. with compound starting day 9. Rats were scored daily and cumulative scores were determined by adding the average daily scores over the experimental period. […] The average daily scores+/−SEM and the cumulative average scores are shown. Cumulative average scores were determined by adding the average daily scores over the experimental period.

[3] = system: Fmr1 KO mice and wild-type littermates; assay: Elevated Plus Maze test, mouse model of Fragile X Syndrome; assay type: in vivo; settings: 10 mg/kg/d i.p. osmotic pump, 1 week
Method: as §1, §2, §3

[4] = system: focal cerebral ischemia (temporary MCA occlusion); assay: Rat stroke model, 90 min temporary MCA occlusion; assay type: in vivo, Male Wistar rats; settings: for Neurological score / Infarct volume (Means ± SD): temporary; for Infarct volume (Means ± SD): 24 hr after MCAO; for Effect on infarct volume: temporary occlusion
[5] = system: Fmr1 KO mice and wild-type littermates; assay: Open Field test, mouse model of Fragile X Syndrome; assay type: in vivo; settings: 10 mg/kg/d i.p. osmotic pump, 1 week
Method: as §1, §2, §3

bacterial ribosome = assay: Transcription/translation (TnT) in vitro assay of bacterial protein synthesis; assay type: biochemical
Method: The antibacterial activity of Compound 1 was evaluated against comparator compounds minocycline and doxycycline. Test compounds are considered to have antibacterial activity if they inhibit bacterial growth at test concentrations below 4 μM. […] Further, mechanistic evidence of their antibacterial activity was evaluated using the transcription/translation (TnT) in vitro assay which directly measures the bacterial cellular efficiency of protein synthesis with and without test compounds present.

[6] = 20 mg/kg i.v. at 30 min, 6 hr after MCAO
[7] = 40 mg/kg i.v. at 60 min, 6 hr after MCAO
[8] = 40 mg/kg i.v. at 3 hr, 8 hr after MCAO

CCc1cc(N(C)C)c2c(c1O)C(=O)C1=C(O)[C@]3(O)C(=O)C(C(N)=O)=C(O)[C@@H](N(C)C)[C@@H]3C[C@@H]1C2 [Compound 1]
Effects on fetal body weight [1]: only slight effects on fetal body weight | Neurological score ([2]; 40 mg/kg i.v. at −90 min, 90 min, 6 hr after MCAO, permanent): 1.1 ± 0.3 | Infarct volume (Means ± SD) ([2]; 40 mg/kg i.v. at −90 min, 90 min, 6 hr after MCAO, permanent, 24 hr after MCAO): 145.7 ± 33.9 mm3 | Effect on infarct volume ([2]; permanent occlusion, treatment started at 90 min pre-occlusion): statistically significant reductions in infarct volume | GLP phototoxicity assay result (GLP phototoxicity assay): negative | Contextual fear conditioning, learning deficit (freezing) (Fmr1 KO2 mice): failed to fully rescue the learning deficit | Effects in metabolism (Metabolism): no significant effects | Effect on clinical course of EAE (onset, maximum disease severity) (MOG peptide-induced EAE): both delayed the onset and inhibited the maximum disease severity more potently than minocycline | Elevated Plus Maze: time spent in the close arm, Mean time ([3]; Fmr1 KO mice): 259.100 min | Elevated Plus Maze: time spent in the close arm, Mean time ([3]; WT mice): 227.800 min | Neurological score [4, 6]: 1.5 ± 0.5 | Infarct volume (Means ± SD) [4, 6]: 139.2 ± 32.2 mm3 | Neurological score [4, 7]: 1.3 ± 0.5 | Infarct volume (Means ± SD) [4, 7]: 125.9 ± 49.9 mm3 | Neurological score [4, 8]: 1.4 ± 0.5 | Infarct volume (Means ± SD) [4, 8]: 172.8 ± 45.3 mm3 | Effect on infarct volume ([4]; treatment initiated three hours post occlusion): did not demonstrate an ability to reduce infarct volume | Effect on infarct volume ([4]; treatment started at 30 or 60 min after MCA occlusion): statistically significant reductions in infarct volume | Open Field Test - Trial 2, Mean time ([5]; Fmr1 KO mice): 97.100 min | Open Field Test - Trial 3, Mean time ([5]; Fmr1 KO mice): 72.600 min | Open Field Test - Trial 2, Mean time ([5]; WT mice): 83.900 min | Open Field Test - Trial 3, Mean time ([5]; WT mice): 68.300 min | Protein Synthesis Inhibition (IC50) (bacterial ribosome): >100 µg/mL
